Laboratory results taken from PubChem BioAssay AID2060902 (Molecular Pharmacology Branch, DTP, NCI, 2025).

Tested on: 485368-065-R3-J5-PDC spheroids with HUVEC/MSC, viability
Assay: Anticancer human tumor 485368-065-R3-J5-PDC patient-derived pancreatic carcinoma cell line growth inhibition [RAS]
Settings: for IC50: curve of first compound; for viability, T/C: stronger effect = lower value
Method in brief: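 Multi-cell-type spheroids: tumor cells plus HUVEC endothelial cells and mesenchymal stem cells. RAS-pathway inhibitors were combined with targeted agents, each dosed in half-log steps down from clinical Cmax, or from 10 microM when Cmax was unknown.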
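Further: spheroids exposed to agents for seven days before readout.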

SMILES: CC1(O)CCCC1n1c(=O)c(C(F)F)cc2cnc(NC3CCN(S(C)(=O)=O)CC3)nc21 (stereo unspecified) + C=CC(=O)N1CCN(c2nc(OCC3CCCN3C)nc3c(F)c(-c4nc(N)cc(C)c4C(F)(F)F)c(Cl)cc23)C(C)C1
- IC50 (second compound 0.00316 µM): 402 nM
- IC50 (second compound 0.01 µM): 314 nM
- IC50 (second compound 0.0316 µM): 298 nM
- IC50 (second compound 0.1 µM): 258 nM
- IC50 (second compound 0.316 µM): 429 nM
- IC50 (second compound 1 µM): 750 nM
- viability, T/C (second compound 0.00316 µM, first compound 0.0316 µM): 109%
- viability, T/C (second compound 0.00316 µM, first compound 0.1 µM): 68.7%
- viability, T/C (second compound 0.00316 µM, first compound 0.316 µM): 46.7%
- viability, T/C (second compound 0.00316 µM, first compound 1 µM): 48.2%
- viability, T/C (second compound 0.00316 µM, first compound 3.16 µM): 40.6%
- viability, T/C (second compound 0.00316 µM, first compound 10 µM): 11.1%
- viability, T/C (second compound 0.01 µM, first compound 0.0316 µM): 107%
- viability, T/C (second compound 0.01 µM, first compound 0.1 µM): 69.5%
- viability, T/C (second compound 0.01 µM, first compound 0.316 µM): 45.3%
- viability, T/C (second compound 0.01 µM, first compound 1 µM): 38.8%
- viability, T/C (second compound 0.01 µM, first compound 3.16 µM): 42.1%
- viability, T/C (second compound 0.01 µM, first compound 10 µM): 12.6%
- viability, T/C (second compound 0.0316 µM, first compound 0.0316 µM): 99.3%
- viability, T/C (second compound 0.0316 µM, first compound 0.1 µM): 62.2%
- viability, T/C (second compound 0.0316 µM, first compound 0.316 µM): 44.4%
- viability, T/C (second compound 0.0316 µM, first compound 1 µM): 42.2%
- viability, T/C (second compound 0.0316 µM, first compound 3.16 µM): 45.9%
- viability, T/C (second compound 0.0316 µM, first compound 10 µM): 11.3%
- viability, T/C (second compound 0.1 µM, first compound 0.0316 µM): 93.9%
- viability, T/C (second compound 0.1 µM, first compound 0.1 µM): 62.8%
- viability, T/C (second compound 0.1 µM, first compound 0.316 µM): 38.3%
- viability, T/C (second compound 0.1 µM, first compound 1 µM): 41.9%
- viability, T/C (second compound 0.1 µM, first compound 3.16 µM): 47.6%
- viability, T/C (second compound 0.1 µM, first compound 10 µM): 10.6%
- viability, T/C (second compound 0.316 µM, first compound 0.0316 µM): 99.7%
- viability, T/C (second compound 0.316 µM, first compound 0.1 µM): 64.8%
- viability, T/C (second compound 0.316 µM, first compound 0.316 µM): 51.8%
- viability, T/C (second compound 0.316 µM, first compound 1 µM): 42%
- viability, T/C (second compound 0.316 µM, first compound 3.16 µM): 43.4%
- viability, T/C (second compound 0.316 µM, first compound 10 µM): 12.5%
- viability, T/C (second compound 1 µM, first compound 0.0316 µM): 109%
- viability, T/C (second compound 1 µM, first compound 0.1 µM): 60%
- viability, T/C (second compound 1 µM, first compound 0.316 µM): 41.3%
- viability, T/C (second compound 1 µM, first compound 1 µM): 55.7%
- viability, T/C (second compound 1 µM, first compound 3.16 µM): 44.9%
- viability, T/C (second compound 1 µM, first compound 10 µM): 11.1%

SMILES: Nc1ccn(C2OC(CO)C(O)C2(F)F)c(=O)n1 (stereo unspecified) + CCn1c(-c2cc(N3CCN(C)CC3)cnc2C(C)OC)c2c3cc(ccc31)-c1csc(n1)CC(NC(=O)C1CC1C)C(=O)N1CCCC(N1)C(=O)OCC(C)(C)C2
- IC50 (second compound 0.000949 µM): < 3.16 nM
- IC50 (second compound 0.003 µM): < 3.16 nM
- IC50 (second compound 0.00949 µM): < 3.16 nM
- IC50 (second compound 0.03 µM): < 3.16 nM
- IC50 (second compound 0.0949 µM): < 3.16 nM
- IC50 (second compound 0.3 µM): < 3.16 nM
- viability, T/C (second compound 0.000949 µM, first compound 0.00316 µM): 31%
- viability, T/C (second compound 0.000949 µM, first compound 0.01 µM): 15.8%
- viability, T/C (second compound 0.000949 µM, first compound 0.0316 µM): 8.79%
- viability, T/C (second compound 0.000949 µM, first compound 0.1 µM): 6.33%
- viability, T/C (second compound 0.000949 µM, first compound 0.316 µM): 6.11%
- viability, T/C (second compound 0.000949 µM, first compound 1 µM): 5.93%
- viability, T/C (second compound 0.003 µM, first compound 0.00316 µM): 18.5%
- viability, T/C (second compound 0.003 µM, first compound 0.01 µM): 12.8%
- viability, T/C (second compound 0.003 µM, first compound 0.0316 µM): 9.81%
- viability, T/C (second compound 0.003 µM, first compound 0.1 µM): 6.58%
- viability, T/C (second compound 0.003 µM, first compound 0.316 µM): 9.3%
- viability, T/C (second compound 0.003 µM, first compound 1 µM): 6.96%
- viability, T/C (second compound 0.00949 µM, first compound 0.00316 µM): 13.5%
- viability, T/C (second compound 0.00949 µM, first compound 0.01 µM): 10.9%
- viability, T/C (second compound 0.00949 µM, first compound 0.0316 µM): 9.06%
- viability, T/C (second compound 0.00949 µM, first compound 0.1 µM): 8.14%
- viability, T/C (second compound 0.00949 µM, first compound 0.316 µM): 8.28%
- viability, T/C (second compound 0.00949 µM, first compound 1 µM): 7.89%
- viability, T/C (second compound 0.03 µM, first compound 0.00316 µM): 10.7%
- viability, T/C (second compound 0.03 µM, first compound 0.01 µM): 11%
- viability, T/C (second compound 0.03 µM, first compound 0.0316 µM): 7.61%
- viability, T/C (second compound 0.03 µM, first compound 0.1 µM): 6.76%
- viability, T/C (second compound 0.03 µM, first compound 0.316 µM): 7.98%
- viability, T/C (second compound 0.03 µM, first compound 1 µM): 6.7%
- viability, T/C (second compound 0.0949 µM, first compound 0.00316 µM): 9.63%
- viability, T/C (second compound 0.0949 µM, first compound 0.01 µM): 8.06%
- viability, T/C (second compound 0.0949 µM, first compound 0.0316 µM): 7.29%
- viability, T/C (second compound 0.0949 µM, first compound 0.1 µM): 5.92%
- viability, T/C (second compound 0.0949 µM, first compound 0.316 µM): 6.25%
- viability, T/C (second compound 0.0949 µM, first compound 1 µM): 6.08%
- viability, T/C (second compound 0.3 µM, first compound 0.00316 µM): 6.95%
- viability, T/C (second compound 0.3 µM, first compound 0.01 µM): 7.22%
- viability, T/C (second compound 0.3 µM, first compound 0.0316 µM): 7.67%
- viability, T/C (second compound 0.3 µM, first compound 0.1 µM): 5.52%
- viability, T/C (second compound 0.3 µM, first compound 0.316 µM): 7.58%
- viability, T/C (second compound 0.3 µM, first compound 1 µM): 6.63%

SMILES: CC1(C)CCC(Nc2ncc(C(F)(F)F)c(-c3c[nH]c4c(P(C)(C)=O)c(C#N)ccc34)n2)CN1 (stereo unspecified) + CCn1c(-c2cccnc2C(C)OC)c2c3cc(ccc31)N1CCOC(CC(NC(=O)C(C(C)C)N(C)C(=O)C3(F)CCN(C(=O)C#CC(C)(C)N(C)C)CC3)C(=O)N3CCCC(N3)C(=O)OCC(C)(C)C2)C1
- IC50 (second compound 0.000949 µM): 9.04 nM
- IC50 (second compound 0.003 µM): 15.7 nM
- IC50 (second compound 0.00949 µM): 8.62 nM
- IC50 (second compound 0.03 µM): 7.35 nM
- IC50 (second compound 0.0949 µM): 13.6 nM
- IC50 (second compound 0.3 µM): 17.6 nM
- viability, T/C (second compound 0.000949 µM, first compound 0.000949 µM): 116%
- viability, T/C (second compound 0.000949 µM, first compound 0.003 µM): 85.7%
- viability, T/C (second compound 0.000949 µM, first compound 0.00949 µM): 48%
- viability, T/C (second compound 0.000949 µM, first compound 0.03 µM): 47.1%
- viability, T/C (second compound 0.000949 µM, first compound 0.0949 µM): 43.6%
- viability, T/C (second compound 0.000949 µM, first compound 0.3 µM): 39.9%
- viability, T/C (second compound 0.003 µM, first compound 0.000949 µM): 109%
- viability, T/C (second compound 0.003 µM, first compound 0.003 µM): 73.9%
- viability, T/C (second compound 0.003 µM, first compound 0.00949 µM): 61%
- viability, T/C (second compound 0.003 µM, first compound 0.03 µM): 40.3%
- viability, T/C (second compound 0.003 µM, first compound 0.0949 µM): 32.7%
- viability, T/C (second compound 0.003 µM, first compound 0.3 µM): 35.9%
- viability, T/C (second compound 0.00949 µM, first compound 0.000949 µM): 107%
- viability, T/C (second compound 0.00949 µM, first compound 0.003 µM): 86.7%
- viability, T/C (second compound 0.00949 µM, first compound 0.00949 µM): 46.6%
- viability, T/C (second compound 0.00949 µM, first compound 0.03 µM): 40.9%
- viability, T/C (second compound 0.00949 µM, first compound 0.0949 µM): 42.5%
- viability, T/C (second compound 0.00949 µM, first compound 0.3 µM): 38.2%
- viability, T/C (second compound 0.03 µM, first compound 0.000949 µM): 108%
- viability, T/C (second compound 0.03 µM, first compound 0.003 µM): 66.1%
- viability, T/C (second compound 0.03 µM, first compound 0.00949 µM): 47.4%
- viability, T/C (second compound 0.03 µM, first compound 0.03 µM): 35.2%
- viability, T/C (second compound 0.03 µM, first compound 0.0949 µM): 38.3%
- viability, T/C (second compound 0.03 µM, first compound 0.3 µM): 45.3%
- viability, T/C (second compound 0.0949 µM, first compound 0.000949 µM): 104%
- viability, T/C (second compound 0.0949 µM, first compound 0.003 µM): 76.2%
- viability, T/C (second compound 0.0949 µM, first compound 0.00949 µM): 54.9%
- viability, T/C (second compound 0.0949 µM, first compound 0.03 µM): 39.9%
- viability, T/C (second compound 0.0949 µM, first compound 0.0949 µM): 39%
- viability, T/C (second compound 0.0949 µM, first compound 0.3 µM): 35.5%
- viability, T/C (second compound 0.3 µM, first compound 0.000949 µM): 102%
- viability, T/C (second compound 0.3 µM, first compound 0.003 µM): 92.3%
- viability, T/C (second compound 0.3 µM, first compound 0.00949 µM): 55.1%
- viability, T/C (second compound 0.3 µM, first compound 0.03 µM): 47%
- viability, T/C (second compound 0.3 µM, first compound 0.0949 µM): 45.6%
- viability, T/C (second compound 0.3 µM, first compound 0.3 µM): 42.6%
